Results published in patent US6136825A, “Sulfonamide compounds having 5-HT receptor activity” (Knoll Aktiengesellschaft, priority 1996, dated 2000).

Assays:
5-HT1A = target: T1, 5-HT1A (Rattus norvegicus, UniProt P19327); experiment: inhibition of tritiated ligand ([3H]8-OH-DPAT) binding to 5-HT1A receptors, rat hippocampal tissue; design: species or system male Charles River CD rats; details: for inhibition at 1 µM: at 10^-6 M, read-out: % displacement of specific binding, 5-HT1A; for Ki: 25° C., 30 minutes, pH 7.7
T1 construct: Hippocampal tissue from the brains of male Charles River CD rats; from tissue; host or cells: rat hippocampus (male Charles River CD rats), crude membrane pellet
T1 sequence (P19327 1-422): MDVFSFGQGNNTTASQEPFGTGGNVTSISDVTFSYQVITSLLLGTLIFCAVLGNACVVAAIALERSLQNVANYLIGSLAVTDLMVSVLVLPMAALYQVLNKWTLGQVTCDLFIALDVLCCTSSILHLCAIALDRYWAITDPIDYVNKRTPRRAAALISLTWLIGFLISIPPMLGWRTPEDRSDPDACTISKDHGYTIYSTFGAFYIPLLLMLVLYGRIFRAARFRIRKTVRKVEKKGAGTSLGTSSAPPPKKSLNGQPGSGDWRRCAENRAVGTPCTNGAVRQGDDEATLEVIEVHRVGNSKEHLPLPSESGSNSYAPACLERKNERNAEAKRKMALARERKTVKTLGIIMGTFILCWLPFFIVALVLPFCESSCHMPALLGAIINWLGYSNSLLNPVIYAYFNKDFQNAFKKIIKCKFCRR
Method: Hippocampal tissue from the brains of male Charles River CD rats weighing between 150-250 g were homogenised in ice-cold 50 mM Tris-HCl buffer (pH 7.7) when measured at 25° C., 1:40 w/v) and centrifuged at 30,000 g at 4° C. for 10 minutes. The pellet was rehomogenised in the same buffer, incubated at 37° C. for 10 minutes and centrifuged at 30,000 g at 4° C. for 10 minutes. The final pellet was resuspended in 50 mM Tris-HCl buffer (pH 7.7) containing 4 mM CaCl2, 0.1% L-ascorbic acid and 10 μM pargyline hydrochloride (equivalent to 6.25 mg wet weight of tissue/ml) and used immediately in the binding assay. Aliquots (400 μl; equivalent to 2.5 mg wet weight of tissue/tube) of this suspension were added to tubes containing the ligand (50 μl; 2 nM) and distilled water (50 μl; total binding) or 5-HT (50 μl; 10 μM; non-specific binding) or test compound (50 μl; at a single concentration of 10^-6 M or at 10 concentrations ranging from 10^-11 -10^-3 M). The ligand was [^3 H]8-hydroxy-2-(dipropylamino)tetralin ([^3 H]8-OH-DPAT) and the mixture was incubated at 25° C. for 30 minutes before the incubation was terminated by rapid filtration.
The filters were washed with ice-cold Tris-HCl buffer and dried. The filters were punched out into vials, scintillation fluid added and radioactivity determined by liquid scintillation counting. The percentage displacement of specific binding of the tritiated ligand was calculated for the single concentration (10^-6 M) of test compound. Displacement curves were then produced for those compounds which displaced ≥50% of specific binding of the tritiated ligand at 10^-6 M using a range of concentrations of the compound. The concentration which gave 50% inhibition of specific binding (IC50) was obtained from the curve. The inhibition coefficient Ki was then calculated using the formula [formula] in which [ligand] is the concentration of the tritiated ligand used and KD Is the equilibrium dissociation constant for the ligand.

[1] = target: T2, D2-like dopamine receptors (Rattus norvegicus, UniProt P61169); experiment: inhibition of tritiated (S)-sulpiride binding to D2-like dopamine receptors, rat striatal tissue; design: species or system male Charles River CD rats; details: for Ki: 4° C., 40 minutes, pH 7.7; for inhibition at 1 µM: at 10^-6 M, read-out: % displacement of specific binding, D2-like
T2 construct: Striatal tissue from the brains of male Charles River CD rats; from tissue; host or cells: rat striatum (male Charles River CD rats), crude membrane pellet
Method: Striatal tissue from the brains of male Charles River CD rats weighing between 140-250 g were homogenised in ice-cold 50 mM Tris-HCl buffer (pH 7.7 when measured at 25° C.) and centrifuged at 40,000 g for 10 minutes. The pellet was resuspended in Tris salts buffer (50 mM Tris-HCl buffer containing 120 mM NaCl, 5 mM KCl, 2 mM CaCl2 and 1 mM MgCl2 with the addition of 6 mM ascorbic acid; pH 7.7 when measured at 25° C.), and again centrifuged at 40,000 g for 10 minutes. The final pellet was stored at -80° C. Before each test the pellet was resuspended in Tris salts buffer (equivalent to 2 mg wet weight of tissue/ml). Aliquots (720 μl; equivalent to 1.44 mg wet weight of tissue/tube) of this suspension were then added to tubes containing the ligand (40 μl; 1 nM) and Tris salts buffer (40 μl; total binding) or spiroperidol (40 μl; 10 nM; non-specific binding) or test compound (40 μl; at a single concentration of 10^-6 M or at 6 concentrations ranging from 10^-11 -10^-4 M). The ligand was tritiated (S)-sulpiride and the mixture was incubated at 4° C. for 40 minutes before the incubation was terminated by rapid filtration.
The filters were washed with ice-cold Tris-HCl buffer and dried. The filters were punched out in to vials, scintillation fluid added and were left for about 20 hours before being counted by scintillation spectrophotometry. The percentage displacement of specific binding of the tritiated ligand was calculated for the single concentration (10^-6 M) of test compound. Displacement curves were then produced over a range of concentrations for those compounds which displaced ≥50% of specific binding of the tritiated ligand at 10^-6 M. The concentration which gave a 50% inhibition of specific binding (IC50) was obtained from the curve. The inhibition coefficient Ki was then calculated using the formula [formula] in which [ligand] is the concentration of the tritiated ligand used and KD is the equilibrium dissociation constant for the ligand.

T2 sequence (P61169 whole entry): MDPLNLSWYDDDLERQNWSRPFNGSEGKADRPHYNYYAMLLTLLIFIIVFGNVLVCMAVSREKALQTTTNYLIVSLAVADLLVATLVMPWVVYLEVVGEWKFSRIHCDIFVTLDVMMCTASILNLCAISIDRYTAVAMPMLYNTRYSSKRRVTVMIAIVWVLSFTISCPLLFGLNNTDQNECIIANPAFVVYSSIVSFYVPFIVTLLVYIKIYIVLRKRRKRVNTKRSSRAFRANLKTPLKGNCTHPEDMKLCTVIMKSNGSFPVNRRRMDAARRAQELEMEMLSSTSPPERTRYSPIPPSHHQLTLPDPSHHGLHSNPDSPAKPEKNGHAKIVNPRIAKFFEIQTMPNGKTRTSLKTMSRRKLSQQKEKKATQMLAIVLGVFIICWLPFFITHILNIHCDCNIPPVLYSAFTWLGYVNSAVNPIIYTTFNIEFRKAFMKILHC

| SMILES | inhibition at 1 µM (5-HT1A) [%] | Ki [1] [nM] | inhibition at 1 µM [1] [%] | Ki (5-HT1A) [nM] |
| --- | --- | --- | --- | --- |
| O=S(=O)(NCC1CCN(C[C@H]2COc3ccc(Cl)cc3O2)CC1)c1cccc2ccccc12 [Example 31, (S)-N-{[1-(7-Chloro-1,4-benzodioxan-2-ylmethyl)-4-piperidyl]methyl}-1-naphthalenesulphonamide] | 60 | 215 | – | – |
| Cc1cc(C)c(S(=O)(=O)NCC2CCN(C[C@H]3COc4ccc(Cl)cc4O3)CC2)c(C)c1 [Example 21, (S)-N-{[1-(7-Chloro-1,4-benzodioxan-2-ylmethyl)-4-piperidyl]methyl}-2,4,6-trimethylbenzenesulphonamide] | 71 | 249 | – | – |
| O=[N+]([O-])c1ccccc1S(=O)(=O)NCC1CCN(C[C@H]2COc3ccc(Cl)cc3O2)CC1 [Example 37, (S)-N-{[1-(7-Chloro-1,4-benzodioxan-2-ylmethyl)-4-piperidyl]methyl}-2-nitro-benzenesulphonamide] | 87 | 85 | – | – |
| O=S(=O)(NCC1CCN(C[C@H]2COc3ccc(Br)cc3O2)CC1)c1ccc(F)c(Cl)c1 [Example 48, (S)-(-)-3-Chloro-N-{[1-(7-bromo-1,4-benzodioxan-2-ylmethyl)-4-piperidyl]methyl}-4-fluorobenzenesulphonamide] | 88 | – | 103 | – |
| O=S(=O)(NCC1CCN(C[C@H]2COc3ccc(Br)cc3O2)CC1)c1ccccc1F [Example 45, (S)-(-)-N-{[1-(7-Bromo-1,4-benzodioxan-2-ylmethyl)-4-piperidyl]methyl}-2-fluorobenzenesulphonamide] | 97 | – | 109 | – |
| O=S(=O)(NCC1CCN(C[C@H]2COc3ccc(Cl)cc3O2)CC1)c1c(F)cccc1F [Example 10, (S)-(-)-N-{[1-(7-chloro-1,4-benzodioxan-2-ylmethyl)-4-piperidyl]methyl}-2,6-difluorobenzenesulphonamide] | – | 50.1 | – | 7.4 |
| COc1ccc(OC)c(S(=O)(=O)NCC2CCN(C[C@H]3COc4ccc(Cl)cc4O3)CC2)c1 [Example 32, (S)-N-{[1-(7-Chloro-1,4-benzodioxan-2-ylmethyl)-4-piperidyl]methyl}-2,5-dimethoxybenzenesulphonamide] | 87 | 285 | – | – |
| O=S(=O)(NCC1CCN(C[C@H]2COc3cc4c(cc3O2)OCO4)CC1)c1cccc(Cl)c1Cl [Example 49, (S)-(-)-2,3-Dichloro-N-{[1-(^6,^7-methylenedioxy-1,4-benzodioxan-2-ylmethyl)-4-piperidyl]methyl}benzenesulphonamide] | 77 | – | 89 | – |
| Cc1c([N+](=O)[O-])cc(S(=O)(=O)NCC2CCN(C[C@H]3COc4ccc(Cl)cc4O3)CC2)cc1[N+](=O)[O-] [Example 26, (S)-N-{[1-(7-Chloro-1,4-benzodioxan-2-ylmethyl)-4-piperidyl]methyl}-4-methyl-3,5-dinitrobenzenesulphonamide] | 88 | – | 87 | – |
| O=S(=O)(NCC1CCN(C[C@H]2COc3ccc(Cl)cc3O2)CC1)c1cc(OCC(F)(F)F)ccc1OCC(F)(F)F [Example 16, (S)-N-{[1-(7-Chloro-1,4-benzodioxan-2-ylmethyl)-4-piperidyl]methyl}-2,5-bis(2,2,2-trifluoroethoxy)benzenesulphonamide] | 84 | 258 | – | – |
| O=[N+]([O-])c1ccc(S(=O)(=O)NCC2CCN(C[C@H]3COc4ccc(Cl)cc4O3)CC2)c([N+](=O)[O-])c1 [Example 15, (S)-N-{[1-(7-Chloro-1,4-benzodioxan-2-ylmethyl)-4-piperidyl]methyl}-2,4-dinitrobenzenesulphonamide] | 82 | 212 | – | – |
| CCN(CC)c1cccc2c(S(=O)(=O)NCC3CCN(C[C@H]4COc5ccc(Cl)cc5O4)CC3)cccc12 [Example 23, (S)-N-{[1-(7-Chloro-1,4-benzodioxan-2-ylmethyl)-4-piperidyl]methyl}-5-(diethylamino)naphthalene-1-sulphonamide] | 82 | – | 83 | – |
| CC(=O)Nc1ccc(S(=O)(=O)NCC2CCN(C[C@H]3COc4ccc(Cl)cc4O3)CC2)cc1 [Example 8, (S)-(-)-4-acetamido-N-{[1-(7-chloro-1,4-benzodioxan-2-ylmethyl)-4-piperidyl]methyl}benzenesulphonamide] | – | 37.2 | – | 45 |
| O=S(=O)(NCC1CCN(C[C@H]2COc3ccc(Cl)cc3O2)CC1)c1cccc(Cl)c1Cl [Example 43, (S)-(-)-2,3-Dichloro-N-{[1-(7-chloro-1,4-benzodioxan-2-ylmethyl)-4-piperidyl]methyl}benzenesulphonamide] | – | 73 | – | 1.5 |
| O=S(=O)(NCC1CCN(C[C@H]2COc3ccc(Br)cc3O2)CC1)c1ccc(F)cc1F [Example 47, (S)-(-)-N-{[1-(7-Bromo-1,4-benzodioxan-2-ylmethyl)-4-piperidyl]methyl}-2,4-difluorobenzenesulphonamide] | – | 48 | – | 16 |
| COc1ccc(S(=O)(=O)NCC2CCN(C[C@H]3COc4ccc(Cl)cc4O3)CC2)cc1 [Example 9, (S)-(-)-N-{[1-(7-chloro-1,4-benzodioxan-2-ylmethyl)-4-piperidyl]-methyl}-4-methoxybenzenesulphonamide] | – | 96.4 | – | 42 |
| O=S(=O)(NCC1CCN(C[C@H]2COc3ccc(C(F)(F)F)cc3O2)CC1)c1ccccn1 [Example 12, (S)-(-)-N-J[1-(7-trifluoromethyl-1,4-benzodioxan-2-ylmethyl)-4-piperidyl]methyl,pyridine-2-sulphonamide] | – | 28.7 | – | 30 |
| O=S(=O)(NCC1CCN(C[C@H]2COc3ccc(Cl)cc3O2)CC1)c1ccc(F)c(F)c1F [Example 38, (S)-N-{[1-(7-Chloro-1,4-benzodioxan-2-ylmethyl)-4-piperidyl]methyl}-2,3,4-trifluorobenzenesulphonamide] | 95 | 330 | – | – |
| CC(=O)Nc1ccc(S(=O)(=O)NCC2CCN(C[C@H]3COc4ccc(Br)cc4O3)CC2)cc1 [Example 44, (S)-(-)-4-Acetamido-N-{[1-(7-bromo-1,4-benzodioxan-2-ylmethyl}-4-piperidyl]methyl)benzenesulphonamide] | – | 23 | – | 14 |
| O=S(=O)(NCC1CCN(C[C@H]2COc3ccc(Cl)cc3O2)CC1)c1c(F)c(Br)cc(F)c1Br [Example 39, (S)-2,5-Dibromo-N-{[1-(7-chloro-1,4-benzodioxan-2-ylmethyl)-4-piperidyl]methyl}-3,6-difluorobenzenesulphonamide] | 98 | 438 | – | – |
